Reference: the supplement of paper PMC10307832

Legend:
Assay in all cases: relative viability (nuclei count vs DMSO), 5 days (fraction); higher = more cells survive
[1] = compound: Cc1ccc2nc(NCCN)c3ncc(C)n3c2c1 + NC(=O)Nc1cc(-c2cccc(F)c2)sc1C(=O)N[C@H]1CCCNC1 [AZD7762] (partner 0.2 µM)
How it was run: (§1)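 Cells from lung cancer lines were seeded into 1536-well plates and, one day later, dosed by pin tool. Treatments were either a single drug or a fixed dose of an anchor drug with five library-drug doses (not always all listed) in √10 steps. After 5 days, nuclei were stained in a one-step fixation (final 0.05% Triton X-100, 1% formaldehyde, 1 ug/ml Hoechst) and counted on 4× images, and relative viability is the treated-to-vehicle nuclei ratio, as the median of duplicate plates.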

[2] = compound: Cc1ccc2nc(NCCN)c3ncc(C)n3c2c1 + Nc1nc2[nH]cc(CCc3ccc(C(=O)N[C@@H](CCC(=O)O)C(=O)O)cc3)c2c(=O)[nH]1 [Pemetrexed] (partner 0.2 µM)
How it was run: as §1

Salubrinal + Phenformin = compound: O=C(/C=C/c1ccccc1)NC(NC(=S)Nc1cccc2cccnc12)C(Cl)(Cl)Cl [Salubrinal] + N=C(N)NC(=N)NCCc1ccccc1 [Phenformin] (partner 250 µM)
How it was run: as §1

[3] = compound: Cc1ccc2nc(NCCN)c3ncc(C)n3c2c1 + Cc1cc(Nc2cc(N3CCN(C)CC3)nc(Sc3ccc(NC(=O)C4CC4)cc3)n2)n[nH]1 [Tozasertib] (partner 0.1 µM)
How it was run: as §1

Cell Line | relative viability ([1]; first compound 0.04 µM) | relative viability ([1]; first compound 0.1265 µM) | relative viability ([1]; first compound 0.4 µM) | relative viability ([1]; first compound 1.265 µM) | relative viability ([1]; first compound 4 µM) | relative viability ([2]; first compound 0.04 µM) | relative viability ([2]; first compound 0.1265 µM) | relative viability ([2]; first compound 0.4 µM) | relative viability ([2]; first compound 1.265 µM) | relative viability ([2]; first compound 4 µM) | relative viability (Salubrinal + Phenformin; first compound 0.08 µM) | relative viability (Salubrinal + Phenformin; first compound 0.253 µM) | relative viability (Salubrinal + Phenformin; first compound 0.8 µM) | relative viability (Salubrinal + Phenformin; first compound 2.53 µM) | relative viability (Salubrinal + Phenformin; first compound 8 µM) | relative viability ([3]; first compound 0.04 µM) | relative viability ([3]; first compound 0.1265 µM) | relative viability ([3]; first compound 0.4 µM) | relative viability ([3]; first compound 1.265 µM) | relative viability ([3]; first compound 4 µM)
NCI-H3122 | 1.05 | 1.04 | 0.98 | 0.973 | 1.05 | 0.199 | 0.192 | 0.192 | 0.218 | 0.2 | 0.42 | 0.371 | 0.412 | 0.367 | 0.356 | 0.436 | 0.391 | 0.412 | 0.352 | 0.293
PC-3 [JPC-3] | 0.883 | 0.623 | 0.829 | 0.728 | 0.591 | 1.21 | 1.03 | 1.1 | 0.987 | 1.09 | 0.471 | 0.448 | 0.529 | 0.475 | 0.467 | 0.899 | 0.821 | 0.914 | 0.848 | 0.833
PC-14 | 0.388 | 0.298 | 0.239 | 0.399 | 0.287 | 0.135 | 0.14 | 0.157 | 0.15 | 0.151 | 0.696 | 0.551 | 0.576 | 0.677 | 0.687 | 0.604 | 0.524 | 0.514 | 0.481 | 0.414
RERF-LC-KJ | 1.09 | 0.934 | 0.828 | 0.942 | 0.838 | 0.489 | 0.474 | 0.435 | 0.485 | 0.518 | 0.442 | 0.39 | 0.414 | 0.408 | 0.413 | 0.512 | 0.506 | 0.561 | 0.456 | 0.32
SW 900 | – | 0.56 | 0.438 | 0.694 | 0.736 | – | 0.49 | 0.444 | 0.464 | 0.489 | 0.555 | – | 0.656 | 0.607 | 0.676 | 0.491 | 0.513 | – | 0.471 | 0.612
